Laboratory results published in patent publication US20030118577A1, “Use of analogues of superoxide dismutase for treating hepatocellular insufficiencies” (priority 2000, published 2003).

Columns and labels:
[1] = tested on: ischemic lesions of hepatic grafts; assay: Transaminase release from removed mouse livers in Belzer's preservation fluid; details: Belzer's fluid with MnTBAP 10 μg/ml; 4° C.
Method: Ischemia of hepatic grafts after their removal and during their preservation at 4° C. causes hepatocytic lesions.
The intensity of the lesions may be evaluated on the concentration of transaminases in the preservation fluid.
Mouse livers were surgically removed, rinsed with Belzer's preservation fluid supplemented or otherwise with MnTBAP at the concentration of 10 μg/ml. The transaminases were then assayed in the fluid at various times after removal of the organ.

[2] = tested on: acute hepatic insufficiency induced by acetaminophen; assay: Survival of mice after intraperitoneal acetaminophen (acute hepatic insufficiency); details: for rate of survival: 24 hours after acetaminophen 1000 mg/kg ip, FIG. 1
Method: The intraperitoneal injection of acetaminophen into mice induces a severe hepatotoxicity, the degree of which may be evaluated by the survival of the animals, measuring transaminase activities, and macroscopic and microscopic examination of the livers.
The acetaminophen in solution at 100 mg/ml in PBS at pH 7.4 is administered by the intraperitoneal route.
In a first series of experiments, a group of mice received a dose of 1000 mg/kg of acetaminophen; a second group received a dose of 1000 mg/kg of acetaminophen and a dose of 10 mg/kg of MnTBAP administered either 2 h before the acetaminophen or 6 h after; a control group received either MnTBAP alone (10 mg/kg), or PBS alone.
The survival of the animals is monitored for 24 hours after the administration of acetaminophen.
The effect of N-acetyl-L-cysteine (NAC), of CuDIPS, and of MnTBAP on the survival of mice after intraperitoneal injection of 1000 mg/kg of acetaminophen (APAP) was compared.
MnTBAP, NAC, or CuDIPS are administered in the form of a bolus, preventively, 2 hours before (P) or, curatively, 6 hours after (C) the acetaminophen.
The survival of the animals is monitored for 24 hours after administration of acetaminophen.

## O=C(O)c1ccc(-c2c3nc(c(-c4ccc(C(=O)O)cc4)c4ccc([n-]4)c(-c4ccc(C(=O)O)cc4)c4nc(c(-c5ccc(C(=O)O)cc5)c5ccc2[n-]5)C=C4)C=C3)cc1.[Mn+3] [MnTBAP, Mn(III) tetrakis(5,10,15,20-benzoic acid)porphyrin]
[1]
  release of transaminases by the liver into preservation fluid: reduction in the release of transaminases
[2]; MnTBAP 10 mg/kg ip 2 h before acetaminophen
  rate of survival: ~60%
[2]; MnTBAP 10 mg/kg ip 6 h after acetaminophen
  rate of survival: greater than 40%
[2]; APAP 1000 mg/kg, 2 hours before (P)
  effect on survival rate, administered preventively: increases the survival rate in a manner at least equal to NAC
[2]; APAP 1000 mg/kg, 6 hours after (C) or 2 hours before (P)
  activity on survival, curative versus preventive administration: active when it is administered curatively
[2]; APAP 1000 mg/kg, per os
  activity on survival by the oral route: active
[2]; Group II: MnTBAP 10 mg/kg alone, no APAP, time 0 h
  percentage of surviving animals: 100%
[2]; Group II: MnTBAP 10 mg/kg alone, no APAP, time 6 h
  percentage of surviving animals: 100%
[2]; Group II: MnTBAP 10 mg/kg alone, no APAP, time 8 h
  percentage of surviving animals: 100%
[2]; Group II: MnTBAP 10 mg/kg alone, no APAP, time 9 h
  percentage of surviving animals: 100%
[2]; Group II: MnTBAP 10 mg/kg alone, no APAP, time 10 h
  percentage of surviving animals: 100%
[2]; Group II: MnTBAP 10 mg/kg alone, no APAP, time 11 h
  percentage of surviving animals: 100%
[2]; Group II: MnTBAP 10 mg/kg alone, no APAP, time 12 h
  percentage of surviving animals: 100%
[2]; Group II: MnTBAP 10 mg/kg alone, no APAP, time 13 h
  percentage of surviving animals: 100%
[2]; Group II: MnTBAP 10 mg/kg alone, no APAP, time 14 h
  percentage of surviving animals: 100%
[2]; Group II: MnTBAP 10 mg/kg alone, no APAP, time 15 h
  percentage of surviving animals: 100%
[2]; Group II: MnTBAP 10 mg/kg alone, no APAP, time 16 h
  percentage of surviving animals: 100%
[2]; Group II: MnTBAP 10 mg/kg alone, no APAP, time 17 h
  percentage of surviving animals: 100%
[2]; Group II: MnTBAP 10 mg/kg alone, no APAP, time 18 h
  percentage of surviving animals: 100%
[2]; Group II: MnTBAP 10 mg/kg alone, no APAP, time 20 h
  percentage of surviving animals: 100%
[2]; Group II: MnTBAP 10 mg/kg alone, no APAP, time 22 h
  percentage of surviving animals: 100%
[2]; Group II: MnTBAP 10 mg/kg alone, no APAP, time 24 h
  percentage of surviving animals: 100%
[2]; Group IX: APAP 1000 mg/kg, MnTBAP 50 mg/kg (P) per os, time 0 h
  percentage of surviving animals: 100%
[2]; Group IX: APAP 1000 mg/kg, MnTBAP 50 mg/kg (P) per os, time 6 h
  percentage of surviving animals: 100%
[2]; Group IX: APAP 1000 mg/kg, MnTBAP 50 mg/kg (P) per os, time 8 h
  percentage of surviving animals: 88.8%
[2]; Group IX: APAP 1000 mg/kg, MnTBAP 50 mg/kg (P) per os, time 9 h
  percentage of surviving animals: 88.8%
[2]; Group IX: APAP 1000 mg/kg, MnTBAP 50 mg/kg (P) per os, time 10 h
  percentage of surviving animals: 88.8%
[2]; Group IX: APAP 1000 mg/kg, MnTBAP 50 mg/kg (P) per os, time 11 h
  percentage of surviving animals: 88.8%
[2]; Group IX: APAP 1000 mg/kg, MnTBAP 50 mg/kg (P) per os, time 12 h
  percentage of surviving animals: 88.8%
[2]; Group IX: APAP 1000 mg/kg, MnTBAP 50 mg/kg (P) per os, time 13 h
  percentage of surviving animals: 88.8%
[2]; Group IX: APAP 1000 mg/kg, MnTBAP 50 mg/kg (P) per os, time 14 h
  percentage of surviving animals: 88.8%
[2]; Group IX: APAP 1000 mg/kg, MnTBAP 50 mg/kg (P) per os, time 15 h
  percentage of surviving animals: 88.8%
[2]; Group IX: APAP 1000 mg/kg, MnTBAP 50 mg/kg (P) per os, time 16 h
  percentage of surviving animals: 88.8%
[2]; Group IX: APAP 1000 mg/kg, MnTBAP 50 mg/kg (P) per os, time 17 h
  percentage of surviving animals: 77.7%
[2]; Group IX: APAP 1000 mg/kg, MnTBAP 50 mg/kg (P) per os, time 18 h
  percentage of surviving animals: 66.6%
[2]; Group IX: APAP 1000 mg/kg, MnTBAP 50 mg/kg (P) per os, time 20 h
  percentage of surviving animals: 66.6%
[2]; Group IX: APAP 1000 mg/kg, MnTBAP 50 mg/kg (P) per os, time 22 h
  percentage of surviving animals: 66.6%
[2]; Group IX: APAP 1000 mg/kg, MnTBAP 50 mg/kg (P) per os, time 24 h
  percentage of surviving animals: 66.6%
[2]; Group V: APAP 1000 mg/kg, MnTBAP 10 mg/kg (P), time 0 h
  percentage of surviving animals: 100%
[2]; Group V: APAP 1000 mg/kg, MnTBAP 10 mg/kg (P), time 6 h
  percentage of surviving animals: 100%
[2]; Group V: APAP 1000 mg/kg, MnTBAP 10 mg/kg (P), time 8 h
  percentage of surviving animals: 100%
[2]; Group V: APAP 1000 mg/kg, MnTBAP 10 mg/kg (P), time 9 h
  percentage of surviving animals: 91.4%
[2]; Group V: APAP 1000 mg/kg, MnTBAP 10 mg/kg (P), time 10 h
  percentage of surviving animals: 88.6%
[2]; Group V: APAP 1000 mg/kg, MnTBAP 10 mg/kg (P), time 11 h
  percentage of surviving animals: 77.1%
[2]; Group V: APAP 1000 mg/kg, MnTBAP 10 mg/kg (P), time 12 h
  percentage of surviving animals: 74.3%
[2]; Group V: APAP 1000 mg/kg, MnTBAP 10 mg/kg (P), time 13 h
  percentage of surviving animals: 74.3%
[2]; Group V: APAP 1000 mg/kg, MnTBAP 10 mg/kg (P), time 14 h
  percentage of surviving animals: 71.4%
[2]; Group V: APAP 1000 mg/kg, MnTBAP 10 mg/kg (P), time 15 h
  percentage of surviving animals: 71.4%
[2]; Group V: APAP 1000 mg/kg, MnTBAP 10 mg/kg (P), time 16 h
  percentage of surviving animals: 68.6%
[2]; Group V: APAP 1000 mg/kg, MnTBAP 10 mg/kg (P), time 17 h
  percentage of surviving animals: 68.6%
[2]; Group V: APAP 1000 mg/kg, MnTBAP 10 mg/kg (P), time 18 h
  percentage of surviving animals: 65.7%
[2]; Group V: APAP 1000 mg/kg, MnTBAP 10 mg/kg (P), time 20 h
  percentage of surviving animals: 65.7%
[2]; Group V: APAP 1000 mg/kg, MnTBAP 10 mg/kg (P), time 22 h
  percentage of surviving animals: 65.7%
[2]; Group V: APAP 1000 mg/kg, MnTBAP 10 mg/kg (P), time 24 h
  percentage of surviving animals: 62.9%
